What follows are compounds tested on clathrin-dependent pathway or macro-pinocytosis pathway (assay: Effect of endocytosis pathway inhibitors on BTNP accumulation in response to TTFields). Details: specific inhibitors of clathrin-dependent or macro-pinocytosis pathway.
Format: cell-based

Row | SMILES | effect on accumulation of BTNPs in cytoplasm in response to TTFields
1 | N=C(N)NC(=O)c1nc(Cl)c(N)nc1N [amiloride] | did not modulate
2 | CN(C)CCCN1c2ccccc2Sc2ccc(Cl)cc21 [chlorpromazine] | did not modulate
3 | C=C1[C@@H](C)[C@H]2[C@H](Cc3ccccc3)NC(=O)[C@]23[C@H](OC(C)=O)/C=C/[C@@](C)(O)C(=O)[C@@H](C)C/C=C/[C@H]3[C@@H]1O [cytochalasin D] | did not modulate

— patent publication US12458709B2, “Compositions and methods for imaging a cell” (NOVOCURE GMBH, priority 2019, dated 2025)
